Experimental data as given in US12030876B2, “Aryl hydrocarbon receptor (AHR) agonists and uses thereof” (Ikena Oncology, Inc., priority 2019, dated 2024).

How the values were obtained:
AHR [1] = biological target: T1, AHR (Homo sapiens, UniProt P35869); assay: DRE-Luciferase Reporter Assay, HepG2 (agonist); format: cell-based; conditions: HepG2, Table 3; read-out: DRE-Luc HepG2 - Agonist: Average EC50
T1 construct: endogenous in cells; host or cells: HepG2 (human), transfected with a DRE-luciferase reporter only
T1 sequence (P35869 11-848): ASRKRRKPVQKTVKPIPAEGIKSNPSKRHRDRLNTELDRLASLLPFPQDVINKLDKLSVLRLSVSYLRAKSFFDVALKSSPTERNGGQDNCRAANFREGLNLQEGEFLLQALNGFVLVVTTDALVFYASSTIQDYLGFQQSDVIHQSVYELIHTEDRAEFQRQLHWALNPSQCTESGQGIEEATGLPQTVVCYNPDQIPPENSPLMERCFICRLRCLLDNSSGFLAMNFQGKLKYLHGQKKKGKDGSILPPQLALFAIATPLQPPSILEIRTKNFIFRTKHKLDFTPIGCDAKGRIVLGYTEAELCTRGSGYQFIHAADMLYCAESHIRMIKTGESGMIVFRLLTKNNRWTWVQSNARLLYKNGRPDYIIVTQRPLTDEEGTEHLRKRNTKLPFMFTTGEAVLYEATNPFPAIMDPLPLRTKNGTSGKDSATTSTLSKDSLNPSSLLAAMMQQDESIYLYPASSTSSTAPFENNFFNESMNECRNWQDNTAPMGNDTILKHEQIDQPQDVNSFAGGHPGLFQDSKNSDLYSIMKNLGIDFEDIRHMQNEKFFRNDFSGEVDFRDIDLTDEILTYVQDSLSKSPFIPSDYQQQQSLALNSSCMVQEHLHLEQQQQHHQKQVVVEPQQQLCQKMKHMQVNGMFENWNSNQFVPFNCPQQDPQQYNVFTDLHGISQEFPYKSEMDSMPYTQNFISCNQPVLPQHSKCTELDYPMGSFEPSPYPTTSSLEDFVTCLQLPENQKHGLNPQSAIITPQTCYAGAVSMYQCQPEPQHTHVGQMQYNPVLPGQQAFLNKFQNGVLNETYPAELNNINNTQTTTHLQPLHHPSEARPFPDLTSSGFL
Method in brief: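 Cells carrying a stably or transiently transfected DRE-luciferase reporter, plated overnight at 37 C, then given agonist for 6, 16 or 24 h before lysis and luciferase read-out. Signal scaled between no ligand (minimum) and activating ligand alone, e.g. TCDD (maximum); EC50 = concentration giving half-maximal luciferase activity.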

AHR [2] = biological target: T2, AHR (Mus musculus, UniProt P30561); assay: DRE-Luciferase Reporter Assay, Hepa1.6 (agonist); format: cell-based, murine; conditions: Hepa1.6, Table 3; read-out: DRE-Luc Hepa1.6 - Agonist: Average EC50
T2 sequence (P30561 1-848 F348L/P471L): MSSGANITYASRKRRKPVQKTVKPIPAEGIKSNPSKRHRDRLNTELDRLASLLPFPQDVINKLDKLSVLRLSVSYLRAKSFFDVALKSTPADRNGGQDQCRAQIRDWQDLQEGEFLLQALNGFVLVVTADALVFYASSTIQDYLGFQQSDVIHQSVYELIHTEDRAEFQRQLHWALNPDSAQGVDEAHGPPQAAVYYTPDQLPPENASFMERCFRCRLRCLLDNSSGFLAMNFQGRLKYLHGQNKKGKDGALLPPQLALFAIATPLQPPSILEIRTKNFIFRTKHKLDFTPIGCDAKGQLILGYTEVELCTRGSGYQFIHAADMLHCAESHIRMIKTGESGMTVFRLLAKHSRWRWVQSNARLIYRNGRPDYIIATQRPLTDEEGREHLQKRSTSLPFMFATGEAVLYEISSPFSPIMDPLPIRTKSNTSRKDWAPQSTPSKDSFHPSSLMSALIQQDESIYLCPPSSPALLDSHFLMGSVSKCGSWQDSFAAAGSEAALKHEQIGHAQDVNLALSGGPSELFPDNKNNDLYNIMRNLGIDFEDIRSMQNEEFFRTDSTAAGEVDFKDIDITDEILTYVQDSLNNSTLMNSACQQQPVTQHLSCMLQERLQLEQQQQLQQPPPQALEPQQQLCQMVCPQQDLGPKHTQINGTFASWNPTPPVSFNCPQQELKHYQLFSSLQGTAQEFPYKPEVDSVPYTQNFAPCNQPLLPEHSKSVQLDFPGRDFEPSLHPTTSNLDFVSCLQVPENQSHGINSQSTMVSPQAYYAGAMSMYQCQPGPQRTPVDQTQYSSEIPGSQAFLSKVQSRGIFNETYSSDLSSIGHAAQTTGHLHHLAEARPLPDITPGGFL
Experimental: DRE-Luciferase Reporter Assay
AHR binds to Dioxin Responsive Elements (DRE) upstream of genes that it activates. One measure of AHR activity is activation of a reporter gene, such as luciferase, downstream of one or multiple DRE elements. Luciferase activity reflects activation and inhibition of AHR in the cells expressing this reporter.
Murine Hepa1-6 or Hepa-1c1c7 or other murine cell line with a DRE-luciferase reporter either stably or transiently transfected are plated in media in plates (96-well, 384-well or other plates) and incubated overnight at 37 C in a CO2 incubator. Likewise, human HepG2 or other human cell line with a DRE-luciferase reporter either stably or transiently transfected are plated in media in plates (96-well, 384-well or other plates) and incubated overnight at 37 C in a CO2 incubator.
The next day, an AHR agonist compound is added. Cells are incubated for 6, 16 or 24 hours or another time point and then lysed for determination of luciferase activity as a read-out of the AHR activation. Luciferase can be measured with a commercial kit such as the Promega Luciferase kit or any kit or reagents that provide the luciferin substrate for measuring luciferase activity. The level of luciferase with only activating ligand (e.g. such as TCDD, kynurenine, ITE (2-(1H-indole-3-ylcarbonyl)-4-thiazolecarboxylic methyl ester), VAF347, BNF (beta-naphthoflavone), ICZ (6-formylindolo(3,2-b) carbazole or other AHR ligands) added is the maximum signal while the luciferase with no ligand is the minimum signal. EC50s can be determined as the concentration which activates half of the maximum luciferase activity.

SMILES | EC50 (AHR [1]) | EC50 (AHR [2])
[O-][n+]1cccc(-c2nsc(Nc3cccc(C(F)(F)F)c3)n2)c1 [I-117] | < 10 nM | > 1000 nM
Fc1ccc(/N=N/c2ccc(F)c(-c3csc(Nc4cccc(C(F)(F)F)c4)n3)c2)cc1-c1csc(Nc2cccc(C(F)(F)F)c2)n1 [I-169] | 100 to 1000 nM | 100 to 1000 nM
[O-][n+]1cc(Cl)cc(-c2csc(Nc3cccc(C(F)(F)F)c3)n2)c1 [I-107] | < 10 nM | > 1000 nM
O=c1cc(-n2cnc(Nc3cccc(C(F)(F)F)c3)n2)cc[nH]1 [I-144] | 10 to 100 nM | > 1000 nM
O=C(Nc1cncc(-c2csc(Nc3cccc(C(F)(F)F)c3)n2)c1)Nc1cncc(-c2csc(Nc3cccc(C(F)(F)F)c3)n2)c1 [I-170] | 10 to 100 nM | 10 to 100 nM
N#Cc1cccc(-c2cnc(Nc3cccc(C(F)(F)F)c3)o2)c1 [I-112] | < 10 nM | > 1000 nM
O=c1cc(-c2nsc(Nc3cccc(C(F)(F)F)c3)n2)cc[nH]1 [I-128] | < 10 nM | > 1000 nM
O=C(O)c1cc(/N=N/c2cccc(-c3csc(Nc4cccc(C(F)(F)F)c4)n3)c2)cc(C(=O)O)c1 [I-176] | > 1000 nM | > 1000 nM
N#Cc1cccc(-c2csc(Nc3cccc(C(F)(F)F)n3)n2)c1 [I-90] | < 10 nM | > 1000 nM
N#Cc1cccc(-c2nc(Nc3cccc(C(F)(F)F)c3)no2)c1 [I-152] | > 1000 nM | > 1000 nM
O=C(O)c1cc(/N=N/c2ccc(F)c(-c3csc(Nc4cccc(C(F)(F)F)c4)n3)c2)ccc1O [I-179] | 100 to 1000 nM | > 1000 nM
N#Cc1cccc(-n2cnc(Nc3cccc(C(F)(F)F)c3)n2)c1 [I-145] | < 10 nM | > 1000 nM
COc1cc(-n2cnc(Nc3cccc(C(F)(F)F)c3)n2)ccn1 [I-143] | 100 to 1000 nM | > 1000 nM
O=[N+]([O-])c1cc(-c2csc(Nc3cccc(C(F)(F)F)c3)n2)c[n+]([O-])c1 [I-120] | < 10 nM | 100 to 1000 nM
COC(=O)/C(C)=N/Nc1cccc(-c2csc(Nc3cccc(C(F)(F)F)c3)n2)c1 [I-167] | 100 to 1000 nM | 100 to 1000 nM
C[N+](C)(C)CCNC(=O)N(c1cccc(C(F)(F)F)c1)c1nc(-c2cc[nH]c(=O)c2)cs1 [I-146] | < 10 nM | > 1000 nM
[O-][n+]1cccc(-c2csc(Nc3cccc(C(F)(F)F)n3)n2)c1 [I-121] | < 10 nM | > 1000 nM
CCCOc1cc(-c2csc(Nc3cccc(C(F)(F)F)c3)n2)ccn1 [I-155] | 10 to 100 nM | > 1000 nM
O=[N+]([O-])c1cccc(-c2csc(Nc3cccc(C(F)(F)F)n3)n2)c1 [I-89] | < 10 nM | > 1000 nM

SMILES | EC50 (AHR [1]) | EC50 (AHR [2])
O=c1cc(-c2csc(Nc3cccc(C(F)(F)F)c3)n2)cc[nH]1 [I-93] | < 10 nM | > 1000 nM
N#Cc1cccc(-c2nsc(Nc3cccc(C(F)(F)F)c3)n2)c1 [I-109] | < 10 nM | > 1000 nM
Nc1cc(-c2csc(Nc3cccc(C(F)(F)F)c3)n2)ccn1 [I-156] | < 10 nM | < 10 nM
N#Cc1cccc(-c2noc(Nc3cccc(C(F)(F)F)c3)n2)c1 [I-157] | 100 to 1000 nM | > 1000 nM
FC(F)(F)c1cccc(Nc2nc(-c3cncc(Cl)c3)cs2)c1 [I-91] | < 10 nM | 10 to 100 nM
CSc1cccc(Nc2nc(-c3cccc([N+](=O)[O-])c3)cs2)c1 [I-136] | < 10 nM | 100 to 1000 nM
N#Cc1cccc(-c2csc(Nc3cncc(C(F)(F)F)c3)n2)c1 [I-97] | < 10 nM | 10 to 100 nM
O=C(O)c1cccc(/N=N/c2cc(-c3csc(Nc4cccc(C(F)(F)F)c4)n3)c(F)cc2F)c1 [I-174] | 100 to 1000 nM | 100 to 1000 nM
C[N+](C)(CCNC(=O)N(c1cccc(C(F)(F)F)c1)c1nc(-c2cccc([N+](=O)[O-])c2)cs1)CCNC(=O)N(c1cccc(C(F)(F)F)c1)c1nc(-c2cccc([N+](=O)[O-])c2)cs1 [I-148] | 10 to 100 nM | 100 to 1000 nM
C[N+]1(C)CCN(C(=O)c2cccc(Nc3nc(-c4ccc[n+]([O-])c4)cs3)c2)CC1 [I-159] | > 1000 nM | > 1000 nM
Nc1ccnc(-c2csc(Nc3cccc(C(F)(F)F)c3)n2)c1 [I-168] | > 1000 nM | > 1000 nM
OCc1cccc(-c2csc(Nc3cccc(C(F)(F)F)c3)n2)c1 [I-125] | 10 to 100 nM | > 1000 nM
O=C(O)c1cccc(/N=N/c2cc(-c3csc(Nc4cccc(C(F)(F)F)c4)n3)ccc2F)c1 [I-173] | 100 to 1000 nM | 100 to 1000 nM
Nc1ccccc1-c1csc(Nc2cccc(C(F)(F)F)c2)n1 [I-177] | 10 to 100 nM | < 10 nM
C[N+](C)(C)CCOc1cc(-c2csc(Nc3cccc(C(F)(F)F)c3)n2)ccn1 [I-149] | 100 to 1000 nM | 100 to 1000 nM
Nc1cncc(-c2csc(Nc3cccc(C(F)(F)F)c3)n2)c1 [I-164] | < 10 nM | < 10 nM
FC(F)(F)c1cccc(Nc2nc(-c3cncc(NNc4cncc(-c5csc(Nc6cccc(C(F)(F)F)c6)n5)c4)c3)cs2)c1 [I-175] | 100 to 1000 nM | 100 to 1000 nM
[O-][n+]1cccc(-n2cnc(Nc3cccc(C(F)(F)F)c3)n2)c1 [I-158] | 10 to 100 nM | > 1000 nM
